Consider two molecules from patent publication US4109011A, “Insecticide carbamates of N-(polychloroallyl)-amino-phenols” (priority 1975, dated 1978).

The structures appear in SMILES notation.

One test deals with parasites. The following applies: vs N-dimethyl substituted homolog; Miskus et al 1968; cited from earlier work.
In a further test the test system is Pieris Brassicae. Kind of test: Biological activity on Pieris brassicae larvae, sprayed cut cauliflower leaves. The test is classed as in vivo. The following applies: Table 14, 1% a.p., read-out: % mort. Pieris Brassicae. An excerpt: Biological Activity on Pieris Brassicae (Lepidoptera)
Cut leaves of cauliflower were sprayed with an aqueous dispersion of compound according to this invention at a 0.1% concentration. After drying, they were infested with 5-day old larvae. The mortality percentage of the control, untreated leaves, was zero.
(§1) To show the variation in activity from one compound to another, depending on the species used, the activities of compounds according to this invention were investigated at different concentrations, expressed as percent of active principle, on various infesting species. The mortality percentage was computed in the same way as in the preceding examples.

In test [1] the test system is Culex Pipiens. Description: Biological activity on Culex pipiens (mosquito larvae in aqueous dispersion). The test is classed as in vivo. The note with it: read-out: % mort. Culex Pipiens.
Excerpt: Biological Activity on Culex Pipiens (Diptera)
Mosquito larvae of the third and fourth ages were introduced into glass pots containing an aqueous dispersion of the compounds shown at 2 ppm and 0.2 ppm.
as §1

A further test relates to Macrosiphum Euphorbiae. Kind of test: Biological activity on Macrosiphum euphorbiae (aphides), potato seedlings sprayed with aqueous dispersion. The test is classed as in vivo. The note with it: read-out: % mort. Macrosiphum Euphorbiae. The procedure: Biological Activity on Macrosiphum Euphorbiae (Aphides)
Potato seedlings, cultivated in pots, were infested with adult aphide females and, after a few hours, were sprayed with an aqueous dispersion of the compounds listed in Table 6. The mortality percentage was determined 24 hours after the treatment (on control non-treated seedlings, the mortality percentage was 0).
as §1

In a further test the test system is Tetran Urt. adults. Kind of test: Activity on Tetranychus urticae adults (Table 14). The class given is in vivo. The note with it: 1% a.p., read-out: % mort. Tetran. Urt. adults.
Excerpt: as §1

Test [2] concerns Leptinotarsa Decimlineata. Description: Biological activity on Leptinotarsa decemlineata larvae, sprayed potato seedlings. The test is classed as in vivo. The following applies: read-out: % mort. Leptinot. Decemlin.
Excerpt: Biological Activity on Leptinotarsa Decimlineata Coleoptera
Potato seedlings cultivated in pots were infested with 4-day old larvae and sprayed with an aqueous dispersion of the compounds according to this invention and Aminocarb as a comparison at doses of […]; respectively. The mortality percentage of the control, untreated seedlings, was zero.
as §1

In the next test the test system is Tetranychus Urticae. Description: Biological activity on Tetranychus urticae eggs, bean leaf discs. The class given is in vivo. The note with it: topical, read-out: % mort. Tetran. Urt. eggs.
Excerpt: Biological Activity on Tetranychus Urticae (Acari)
Small discs of bean leaves were infested with acarus eggs and successively treated by spraying with an aqueous dispersion of a compound of this invention and Aminocarb as a comparison, at concentrations of 0.1 and 0.01%. The mortality percentage of the control, untreated discs, was zero.
as §1

The subject of test [3] is Culex Pipiens. Description: Biological activity on Culex pipiens (mosquito larvae in aqueous dispersion). The test is classed as in vivo. The following applies: read-out: % mort. Culex Pipiens. This is another data set of the same source.

Consider `CNC(=O)Oc1cc(C)c(NC)c(C)c1`, for which the relative insecticidal activity result in the test with parasites was “only a bit less active than the N-dimethyl substituted homolog”.
`CNC(=O)Oc1cccc(NCC=C(Cl)Cl)c1` [M 7360]: the mortality at 1 % in the test on Pieris Brassicae was 45%; in the test with Macrosiphum Euphorbiae, 100%; in the test on Tetran Urt. adults, 23%; in test [2], 100%; in the test on Tetranychus Urticae, 6%. Also, in the test with Culex Pipiens [1], the mortality at 0.2 ppm came to 37%. In addition, the mortality at 2 ppm in the test on Culex Pipiens [1] was 100%. For the same molecule, the mortality at 0.01 % in the test with Macrosiphum Euphorbiae turned out to be 42%; in test [2], 0%. The values for the mortality at 0.1 % (in the test with Macrosiphum Euphorbiae; in test [2]) were 95% and 100%, respectively. The mortality at 0.02 ppm with Culex Pipiens [3] was 0%.
